# Laboratory results from patent US8815210B2, “Diagnostic composition comprising plasma cations having superior safety profile” (GE Healthcare AS, priority 2009, dated 2014).
# “Also recorded” adds a separate entry of the source.
# What was measured:
# [1] = Viscosity, calibrated U-tube technique; assay type: physicochemical; settings: 320 mgI/ml, 20° C.
# Procedure: The viscosity of compound I was determined at 20° C. and 37° C. at three different concentrations. The viscosity at 320 mgI/ml and 20° C. is around 24 mPas.
# The viscosity of Compound I was determined at two different temperatures, 20° C. and 37° C. and three different concentrations, 246, 295 and 313 mgI/ml. The test solutions were isotonic through adjustment of the osmolality with NaCl and had been sterilized by autoclavation. The density of the solutions was determined using a Density meter, DMA58 (Anton Paar). A calibrated U-tube technique was used, where the time of fall was used as a measure of dynamic viscosity. The viscosity of compound I was determined at 20° C. and 37° C. at three different concentrations. In comparison with Visipaque, the viscosity at 320 mgI/ml and 20° C. is similar, around 24 mPas.
# [2] = Osmolality, vapour pressure osmometer; assay type: physicochemical; settings: 320 mgI/ml
# Procedure: The osmolality of Compound I was determined at four different concentrations, 204, 254, 310 and 324 mgI/ml. The osmolality of Compound I at 320 mgI/ml is 136 mOsm/kg.
# The osmolality of Compound I was determined at four different concentrations, 204, 254, 310 and 324 mgI/ml. A Vapro 5520 vapour pressure osmometer from Vapro Inc. was used.
# The osmolality of Compound I at 320 mgI/ml is lower than that of iodixanol, 136 mOsm/kg vs 210 mOsm/kg at 320 mgI/ml.
# [3] = test system: normal pigs; assay: Haemodynamic effects after LAD injection in normal pigs without balloon occlusion (Example 2b); assay type: in vivo, pig; settings: 25 ml into LAD, 45 to 70 seconds after injection
# Description: FIG. 5 depicts the effect of Compound I (with and without added Ca) and Visipaque on LVSP 45 to 70 seconds from the start of injection to the LAD of normal pigs normalised to Ringer Lacate (LR) injection.
# The haemodynamic effects of compositions of Compound I with and without added CaCl2 were compared to Visipaque and Iopamidol following selective administration to the LAD in normal pigs without balloon occlusion. The effects of each contrast media were normalised to any effects seen with an equivalent injection of Ringer Lactate solution, which acted as a volume and electrolyte—“ratio” control. There were a total of 12 pigs in this study, and each pig received a single CM injected 3 times at volumes of 10 ml (4 ml/sec), 20 ml (1 ml/sec) and 25 ml (0.4 ml/sec) (total of 9 CM injections in each pig). Each CM was either preceded or followed by a control injection of Ringer Lactate, and the order of each injection (volume) was randomised in each pig.
# [4] = test system: normal pigs; assay: Haemodynamic effects after fast LAD injection in normal pigs (Example 2c); assay type: in vivo, pig; settings: 40 ml at 5 ml/sec into LAD; Compound I in composition with 45 mM NaCl and 0.5 mM CaCl2
# Procedure: FIG. 6 a) and b) depicts the effect on cardiovascular parameters following injection of 40 ml (5 ml/sec) of Ringer Lactate, Compound I, Visipaque or Iopamidol to the LAD of normal pigs.
# In a further study the haemodynamic effects of Compound I in a composition with 45 mM NaCl and 0.5 mM CaCl2 was compared to Visipaque and Iopamidol following selective administration to the LAD of normal pigs with a fast injection rate (5 ml/sec). Ringer Lactate was also studied as a volume and electrolyte “ratio” control. In total 3 pigs were studied, and each CM was administered twice to each pig in random order. The injection rate used was 5 ml/sec with a total injection volume of 40 ml.
# [5] = test system: porcine heart; assay: Intravenous and intra-arterial cardiovascular safety, acute porcine model (Example 3); assay type: in vivo, pig
# Procedure: The intravenous (i.v) and intra-arterial (i.a.) safety of a composition of Compound I was shown in a separate study (ref. B145095). In this study the cardiovascular effects of Compound I in a composition with 45 mM NaCl and 0.5 mM CaCl2 was assessed at three dose levels in vivo in an acute porcine model.
# The composition was administered either intra-arterially or intravenously into groups of three animals at one of three dose levels (1-fold, 2-fold or 3-fold the standard volume of 2 ml/kg). Each animal also received an equivalent volume of Ringer-Lactate solution as a volume control. CV effects: heart rate (HR), pulse oximetry, electrocardiogram (ECG), aortic pressure (systolic, diastolic and mean), left ventricular end diastolic pressure (LVEDP) were assessed. Ultrasound/echocardiography to assess stroke volume, ejection fraction and cardiac contractility were also evaluated.
# [6] = test system: CD25^+-depleted peripheral blood mononuclear cells; assay: In vitro T cell proliferation model; assay type: cell-based; settings: 2 and 5 mg I/mL, 100 donors, positive response stimulation index ≧1.9
# Procedure: Generally, iodinated contrast media may cause late hypersensitivity reactions in susceptible patients from 1 hour to several days after exposure. These reactions are mainly non-serious skin eruptions such as macular, maculopapular and urticaria-like eruptions. Contrast media-induced delayed adverse reactions (DARs) such as skin eruptions appear to be caused by contrast media-reactive T cells that, upon recognizing the contrast media, proliferate and subsequently orchestrate an inflammatory reaction in the skin. The applicant has evaluated an in vitro T cell proliferation model designed to predict the relative frequency with which contrast media, such as Compound I, will cause late skin reactions in patients post-intravascular administration. Two contrast media, iodixanol and iohexol, with known rates of delayed skin reactions, and the new contrast medium, Compound I, was screened (2 and 5 mg I/mL) for in vitro T cell proliferation in CD25^+-depleted peripheral blood mononuclear cells from 100 donors representing world population HLA-DR frequencies. Positive T cell responses were evaluated according to published protocols and stimulation index values (positive response≧1.9). In vitro toxicity was tested by measuring cell viability of the first 10 donor samples incubated with test contrast media (5 mg I/mL). The results were that all major HLA-DR allotypes were represented with a frequency equivalent to the world population. No contrast media tested appeared to have a meaningful effect on cell viability. […] For iodixanol and iohexol, T cell proliferation responses for most donors occurred on days 7 and 8; statistical significance favored a reduced proliferation response to Compound I on day 8. In conclusions the model successfully established the relative frequency with which contrast media caused in vitro T cell activation. The results correlated with reported frequency of late skin reactions with two marketed contrast media and identified a lower frequency for Compound I.
compound,measurement,setting,value
"O=CN(CC(O)CN(C=O)c1c(I)c(C(=O)NCC(O)CO)c(I)c(C(=O)NCC(O)CO)c1I)c1c(I)c(C(=O)NCC(O)CO)c(I)c(C(=O)NCC(O)CO)c1I (centres unmarked) [Compound I, 5-[formyl-[3-[formyl-[3,5-bis(2,3-dihydroxypropylcarbamoyl)-2,4,6-triiodophenyl]amino]-2-hydroxypropyl]amino]-N,N′-bis(2,3-dihydroxypropyl)-2,4,6-triiodobenzene-1,3-dicarboxamide]",viscosity,[1],around 24 mPas
same,osmolality,[2],136 mOsm/kg
same,LVSP change normalised to Ringer Lactate,[3]; composition with 45 mM NaCl and 0.5 mM CaCl2,−0.3 mm Hg
same,LVSP change normalised to Ringer Lactate (mean),"[3]; composition with 45 mM NaCl, no added CaCl2",−5.7 mm Hg
same,increase in LVSP from baseline,[4],~5%
same,"effect on aortic pressure (systolic, diastolic and mean)","[5]; entire dose range, i.v. or i.a.",little or no effect
same,QT interval,[5]; i.a. or i.v. dosing,within the normal range
same,"myocardial performance, overall","[5]; i.a. or i.v. route, up to 3-fold of 2 ml/kg",no overall changes to myocardial performance
same,heart rate (HR),"[5]; i.v. or i.a., 1- to 3-fold of 2 ml/kg",remained within normal ranges
same,LVEDP,"[5]; increasing doses, i.v. or i.a.",slight increases
same,"end diastolic volume (EDV), echocardiography","[5]; pig, in vivo",only a slight change
same,rhythm disturbances (ECG),"[5]; pig, in vivo",no Compound I-related rhythm disturbances
same,oxygen saturation (pulse oximetry),"[5]; throughout dosing, i.v. or i.a., 1- to 3-fold of 2 ml/kg, composition with 45 mM NaCl and 0.5 mM CaCl2",approximately 98%
same,positive T cell proliferation donor samples,[6],fewer positive T cell proliferation donor samples compared with iodixanol and iohexol; also recorded: lowest capacity for stimulating in vitro T cell proliferation
